Consider seven compounds from US8778946B2, “3-substituted-6-(pyridinylmethoxy)-pyrrolopyridine compounds” (Eli Lilly and Company, priority 2010, dated 2014).

Series [1] relates to C57/black 6J male mice. The series is described as follows: Basal (habituated) locomotor activity. Format: in vivo. The method, then: (§1) Anti-Parkinson effects of compounds of the invention can be determined using procedures well known in the art such as animal models of locomotor activity. For example, compounds of the invention show effects on basal (habituated) locomotor activity and on reserpine-induced akinesia in C57/black 6J male mice.
Locomotor activity is measured using an automated system to track movement in mice. Mice are placed in chambers and allowed to habituate to the chambers for 30 mins. During this time they show reduced locomotion over time. Following administration of a compound of the invention, animal movement is restored to pre-habituation levels.
More specifically, locomotor activity boxes [40×40×40 cm clear arenas] are situated in groups of 4 placed on infrared tables and testing is performed in the dark. Locomotor activity is recorded and measured using infrared video tracking. Locomotor activity is recorded between time of 8:30 and 17:00 hours. In some instances locomotor activity is measured using open fields which use infrared beam breaks as a measure of movement.
(§2) Mice are randomly assigned to treatment groups. Each mouse is placed individually into one of the locomotor activity boxes. Distance moved (cm) is recorded per 5 minutes for each mouse. Exploratory behavior is assessed for the following 30 minutes. After 30 minutes recording stops and mice are dosed p.o. with the test compound or vehicle in a volume of 10 ml/kg. Once all mice have been dosed, locomotor activity recording is started for a further 120 minutes to assess the effect of treatment on habituated locomotor activity. Data is transferred from the software/computers to spreadsheets for further analysis. Statistical analysis is carried out using Statistica 8.0. One way ANOVA on TOTAL distance moved, with Treatment group as the between factor, is calculated. If a significant Treatment effect (p≦0.05) is observed then post-hoc analysis is performed, either Fishers' LSD or Dunnetts' test.

Series [2] has as its system male Fischer F-344 Sasco rats. The series is described as follows: Attenuation of stress-induced hyperthermia in rats. Conditions: oral, 60-min pretreatment. Format: in vivo. Here is the method:
Stress-induced hyperthermia is attenuated by clinical anxiolytics and is widely used preclinically to predict anxiolytic efficacy of compounds.
In separate studies, male Fischer F-344 Sasco rats are dosed orally with 0.3, 1, 3, or 10 mg/kg of test compound in a vehicle consisting of 1% carboxymethylcellulose, 0.25% polysorbate 80, 0.05% antifoam (dose volume=1 ml/kg). The mGluR5 receptor antagonist MTEP (3-[(2-methyl-1,3-thiazol-4-yl)ethynyl]pyridine) (10 mg/kg, PO) is used as a quality control. Following a 60-min pretreatment period, core baseline body temperature is measured (T1, in degrees C.) and then ten minutes later a second body temperature measurement is recorded (T2). The change in body temperature (T2 minus T1) is defined as the stress-induced hyperthermic response. The efficacious dose is the dose at which a compound produces a 35% reduction in stress-induced hyperthermia, relative to the vehicle response, and is defined as the T35 dose.

In series [3] the test system is C57/black 6J male mice. The series can be described thus: Reversal of reserpine-induced akinesia. It is filed as in vivo. Here is the method:
as §1
Reserpine is a catecholamine depleting agent (depletes dopamine and noradrenaline) and 18-24 hours after treatment mice become akinetic and have reduced locomotor activity counts. Reserpine-induced akinesia is assessed by measuring the effect of compounds on locomotor activity approximately 18-24 hours after a single dose of 1 mg/kg reserpine i.p. The equipment used is the same as that used for basal locomotor activity (above).
as §2, with “Basal and reserpine-induced exploratory” for “Exploratory”, “compound” for “compound or vehicle”, “dosed” for “dosed,”, “akinesia.” for “habituated locomotor activity.”

In series [4] the test system is Male, NIH-Swiss mice. The series can be described thus: Mouse forced-swim. Format: in vivo. The method, then:
Male, NIH-Swiss mice (20-25 g, Harlan Sprague-Dawley, Indianapolis, Ind.) are used in a method modified from that of Porsolt R D, Le Pichon M, Jalfre M Depression: a new animal model sensitive to antidepressant treatments. Nature. 1977 Apr. 21; 266(5604):730-2. Mice are placed in clear plastic cylinders (diameter 10 cm; height: 25 cm) filled to 6 cm with 22-25° C. water for six min. The duration of immobility is recorded during the last 4 min of a six-minute trial. A mouse is regarded as immobile when floating motionless or making only those movements necessary to keep its head above the water. Data are analyzed by post-hoc Dunnett's test with alpha level set at 0.05. The amount of time spent immobile is measured. Means+S.E.M. are subjected to ANOVA followed by Dunnett's test with p<0.05 set as the error rate for statistical significance. ED60 values are extrapolated from the linear portion of the dose-effect curve and represent the dose predicted to decrease basal immobility (100% at 0 mg/kg compound) by 60%. The maximal decrease in immobility time is calculated using the largest decrease in immobility produced at any dose of a compound with this formula: (100-immobility with compound/immobility under vehicle control) %.

In series [5] the target is T1, human mGluR1 (Homo sapiens, UniProt Q13255).
T1 construct: expressed in transfected cells; host or cells: AV-12 cells containing the rat EAAT1 glutamate transporter
T1 sequence (Q13255 19-1194): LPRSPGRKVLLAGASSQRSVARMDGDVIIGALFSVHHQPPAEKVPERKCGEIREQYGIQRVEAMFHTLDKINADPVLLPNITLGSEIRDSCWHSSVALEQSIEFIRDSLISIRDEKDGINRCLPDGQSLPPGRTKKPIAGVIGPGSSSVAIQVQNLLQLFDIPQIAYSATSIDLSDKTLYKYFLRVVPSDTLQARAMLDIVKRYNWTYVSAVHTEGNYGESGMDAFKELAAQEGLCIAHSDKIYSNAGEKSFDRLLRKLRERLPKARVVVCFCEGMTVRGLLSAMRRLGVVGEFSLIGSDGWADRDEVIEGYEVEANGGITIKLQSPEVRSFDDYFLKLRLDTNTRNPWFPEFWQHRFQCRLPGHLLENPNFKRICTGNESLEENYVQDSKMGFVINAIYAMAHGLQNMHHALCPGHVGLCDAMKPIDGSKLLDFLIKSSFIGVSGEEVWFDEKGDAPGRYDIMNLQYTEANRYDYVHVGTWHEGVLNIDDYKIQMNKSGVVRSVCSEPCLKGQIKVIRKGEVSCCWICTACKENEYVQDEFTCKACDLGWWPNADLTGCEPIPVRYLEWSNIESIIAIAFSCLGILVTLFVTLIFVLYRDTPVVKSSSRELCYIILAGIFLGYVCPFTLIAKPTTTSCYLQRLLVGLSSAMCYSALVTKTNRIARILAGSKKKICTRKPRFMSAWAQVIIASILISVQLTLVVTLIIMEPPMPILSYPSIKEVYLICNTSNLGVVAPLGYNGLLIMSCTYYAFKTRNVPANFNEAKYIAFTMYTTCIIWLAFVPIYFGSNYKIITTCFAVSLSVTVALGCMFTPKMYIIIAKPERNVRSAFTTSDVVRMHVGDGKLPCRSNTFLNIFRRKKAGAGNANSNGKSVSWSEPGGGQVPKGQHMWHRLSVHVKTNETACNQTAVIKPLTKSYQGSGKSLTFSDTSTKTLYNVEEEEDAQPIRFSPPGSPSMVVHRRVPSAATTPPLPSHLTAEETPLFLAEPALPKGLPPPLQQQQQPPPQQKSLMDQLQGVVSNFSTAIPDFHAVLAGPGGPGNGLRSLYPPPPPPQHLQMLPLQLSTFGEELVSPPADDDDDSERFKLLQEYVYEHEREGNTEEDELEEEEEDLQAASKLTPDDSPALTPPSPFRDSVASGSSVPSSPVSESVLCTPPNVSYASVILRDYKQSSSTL
The series can be described thus: Human mGluR1 in vitro functional assay (FLIPR calcium, antagonism of glutamate EC90 response). Format: cell-based. Conditions: AV-12 cells expressing recombinant human mGlu1α, relative IC50. From the text:
(§3) The activation of G-protein coupled receptors (GPCRs) that are coupled to Gq proteins results in a change in intracellular calcium concentration. This functional response can be measured in a kinetic assay using calcium-sensitive dyes and a fluorescent imaging plate reader using a standard technique known as FLIPR (MDS Analytical Technologies, Sunnyvale, Calif.).
(§4) Stable cell line preparation and assay techniques are adapted from Kingston, A. E., et. al. (1995) Neuropharmacology 34: 887-894. […]
(§5) For the functional assays, cells are seeded in growth medium lacking selection antibiotics at a density of 65K per well into 96-well, black/clear bottom, poly-D-lysine coated microplates and incubated for 18-20 hours prior to the experiment. […] The antagonist effects of compounds are quantified in the FLIPR instrument in 10-point dose curves by comparing the peak fluorescent responses to the agonist glutamate in the presence and absence of compound. Specifically, the compound effect is measured as maximal minus minimal peak heights in relative fluorescent units corrected for basal fluorescence as measured in the absence of glutamate. All data are calculated as relative IC50 values using a four-parameter logistic curve fitting program (Activity Base® v5.3.1.22).

The target of series [6] is T2, human mGluR5 (Homo sapiens, UniProt P41594).
T2 construct: expressed in transfected cells; host or cells: AV-12 cells containing the rat EAAT1 glutamate transporter
T2 sequence (P41594 21-1180 isoform P41594-2 limits assumed): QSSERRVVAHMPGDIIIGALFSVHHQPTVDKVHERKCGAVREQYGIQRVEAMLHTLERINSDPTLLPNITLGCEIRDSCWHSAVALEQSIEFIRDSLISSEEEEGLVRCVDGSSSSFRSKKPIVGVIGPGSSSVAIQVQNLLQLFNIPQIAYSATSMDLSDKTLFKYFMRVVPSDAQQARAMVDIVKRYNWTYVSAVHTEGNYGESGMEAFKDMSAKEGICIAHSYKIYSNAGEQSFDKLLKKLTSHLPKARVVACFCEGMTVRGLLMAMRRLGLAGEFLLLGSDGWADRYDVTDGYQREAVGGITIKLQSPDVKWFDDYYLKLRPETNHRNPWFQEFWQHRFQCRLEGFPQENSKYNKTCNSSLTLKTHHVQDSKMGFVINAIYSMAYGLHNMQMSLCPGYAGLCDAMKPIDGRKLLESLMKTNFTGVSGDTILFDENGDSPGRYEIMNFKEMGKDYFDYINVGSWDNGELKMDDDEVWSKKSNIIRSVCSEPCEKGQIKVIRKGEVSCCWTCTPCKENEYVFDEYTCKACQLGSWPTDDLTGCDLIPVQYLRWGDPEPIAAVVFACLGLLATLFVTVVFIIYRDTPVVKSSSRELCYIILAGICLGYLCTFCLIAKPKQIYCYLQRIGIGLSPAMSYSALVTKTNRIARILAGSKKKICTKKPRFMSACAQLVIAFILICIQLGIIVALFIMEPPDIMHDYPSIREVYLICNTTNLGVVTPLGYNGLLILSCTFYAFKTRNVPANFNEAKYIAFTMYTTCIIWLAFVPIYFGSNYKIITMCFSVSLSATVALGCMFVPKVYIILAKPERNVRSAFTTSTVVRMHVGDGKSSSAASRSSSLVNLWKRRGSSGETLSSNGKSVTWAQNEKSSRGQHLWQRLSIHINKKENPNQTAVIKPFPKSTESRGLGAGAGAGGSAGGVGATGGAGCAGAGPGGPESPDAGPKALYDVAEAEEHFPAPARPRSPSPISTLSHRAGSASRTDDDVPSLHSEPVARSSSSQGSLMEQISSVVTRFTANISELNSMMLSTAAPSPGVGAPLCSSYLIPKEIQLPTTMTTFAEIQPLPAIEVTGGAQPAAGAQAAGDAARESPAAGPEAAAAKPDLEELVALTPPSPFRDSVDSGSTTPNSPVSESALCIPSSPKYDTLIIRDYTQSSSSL
The series can be described thus: Human mGluR5 in vitro functional assay (FLIPR calcium, antagonism of glutamate EC90 response). Format: cell-based. Conditions: AV-12 cells expressing recombinant human mGlu5a, relative IC50.
Source text: as §3, §4, §5

The mark [7] stands for this setting: reserpine 1 mg/kg i.p. + 3 mg/kg p.o. test compound.
[8] abbreviates: reserpine 1 mg/kg i.p. + 10 mg/kg p.o. test compound.

“And” between values parts separate entries of the source, which are not always exact repeats. Equal values may be shown once. Marks after values point to notes of the source that are not given here. A value given as a limit tells only on which side of the number the result lay.

`CCCOC(=O)N1CCN(c2cn(C)c3nc(OCc4ccccn4)ccc23)C(=O)C1` [Example 3, Propyl 4-[1-methyl-6-(pyridin-2-ylmethoxy)-1H-pyrrolo[2,3-b]pyridin-3-yl]-3-oxopiperazine-1-carboxylate]: the results for the “Basal Locomotor Activity (mean distance moved (cm) in 120 min)” value (“Basal Locomotor Activity” below) in series [1] (3 mg/kg p.o.) and in series [1] (10 mg/kg p.o.) were 28458.8 *** cm and 39857.5 *** cm, respectively. Further, the “T35 dose (dose producing a 35% reduction in stress-induced hyperthermia relative to vehicle)” value in series [2] is recorded as 0.93 mg/kg.
With `CCOC(=O)N1CCN(c2cn(C)c3nc(OCc4ccccn4)c(C)cc23)C(=O)C1` [Example 28, Ethyl 4-[1,5-dimethyl-6-(pyridin-2-ylmethoxy)-1H-pyrrolo[2,3-b]pyridin-3-yl]-3-oxopiperazine-1-carboxylate], the “Basal Locomotor Activity” value is 25074.1 ** cm in series [1] (3 mg/kg p.o.) and 32866.2 *** cm in series [1] (10 mg/kg p.o.). For the same compound, the “Reversal of Reserpine-Induced Akinesia (mean distance moved (cm) in 120 min)” value (shortened to “Reversal of Reserpine-Induced Akinesia”) in series [3] (setting [7]) is 7848.9 cm; in series [3] (setting [8]) it was 14087.6 **+++ cm.
For `CCOC(=O)N1CCN(c2cn(C)c3nc(OCc4ccccn4)c(Cl)cc23)C(=O)C1` [Example 27, Ethyl 4-[5-chloro-1-methyl-6-(pyridin-2-ylmethoxy)-1H-pyrrolo[2,3-b]pyridin-3-yl]-3-oxopiperazine-1-carboxylate] the same measures were 35290.1 *** cm, 36889.1 *** cm, 27053.7 ***+++ cm and 23432.5 **+++ cm.
The matching figures for `CC(C)OC(=O)N1CCN(c2cn(C)c3nc(OCc4ccccn4)ccc23)C(=O)C1` [Example 4, 1-Methylethyl 4-[1-methyl-6-(pyridin-2-ylmethoxy)-1H-pyrrolo[2,3-b]pyridin-3-yl]-3-oxopiperazine-1-carboxylate]: 30715.2 ** cm, 39935.6 *** cm, 16474.1 + cm and 23394.4± **+++ cm.
Consider `CCn1cc(N2CCN(C(=O)OC)CC2=O)c2ccc(OCc3ccccn3)nc21` [Example 23, methyl 4-[1-ethyl-6-(pyridin-2-ylmethoxy)-1H-pyrrolo[2,3-b]pyridin-3-yl]-3-oxopiperazine-1-carboxylate], for which the “Basal Locomotor Activity” value is listed as 21628.2 ** cm in series [1] (3 mg/kg p.o.) and 31070.8 *** cm in series [1] (10 mg/kg p.o.).
The term melting point denotes the temperature, or range, at which the solid turns liquid. Broadly, the IC50 is the concentration that gives 50% inhibition. `CCOC(=O)N1CCN(c2cn(C)c3nc(OCc4ccccn4)ccc23)C(=O)C1` [Example 1, ethyl 4-[1-methyl-6-(pyridin-2-ylmethoxy)-1H-pyrrolo[2,3-b]pyridin-3-yl]-3-oxopiperazine-1-carboxylate] came in with a melting point of 143.42 °C. Besides, the “Basal Locomotor Activity” value in series [1] (1 mg/kg p.o.) is recorded as 12147 ** cm. Further, the “Basal Locomotor Activity” value in series [1] (3 mg/kg p.o.) is 15980 *** cm. Moreover, the “Basal Locomotor Activity” value in series [1] (10 mg/kg p.o.) is reported as 25109 *** cm. In addition, the “ED60 dose, reduction in forced swim immobility” value in series [4] (extrapolated from linear portion of dose-effect curve) is on record as 8.6 mg/kg. Further, the “maximal decrease in immobility” value in series [4] (largest decrease at any dose relative to vehicle control) is listed as 50.6%. The IC50 in series [5] is > 12.5 µM. Also, the IC50 in series [6] is 184 nM. The “T35 dose (dose producing a 35% reduction in stress-induced hyperthermia relative to vehicle)” value in series [2] came to 0.55 mg/kg. Moreover, the “Reversal of Reserpine-Induced Akinesia” value in series [3] (reserpine 1 mg/kg i.p. + 1 mg/kg p.o. test compound) is given as 15392 ++ cm. Further, the “Reversal of Reserpine-Induced Akinesia” value in series [3] (setting [7]) was 23611 ***+++ cm. Besides, the “Reversal of Reserpine-Induced Akinesia” value in series [3] (reserpine 1 mg/kg i.p. + 30 mg/kg p.o. test compound) is on record as 32607 ***+++ cm.
On to `COC(=O)[C@H]1[C@H]2C[C@@H]3c4[nH]c5cc(OC)ccc5c4CCN3C[C@H]2C[C@@H](OC(=O)c2cc(OC)c(OC)c(OC)c2)[C@@H]1OC` [reserpine, Reserpine, reference compound], for which the “mean distance moved (cm) in 120 min, reserpine alone” value in series [3] (18-24 hours after single dose of 1 mg/kg reserpine i.p., no test compound, 1 mg/kg) was 4118.6 cm and 7331.1 cm and 4597.2 cm and 6150 cm.
